Data as given in patent US10344025B2, “GLS1 inhibitors for treating disease” (Board of Regents, The University of Texas System, priority 2014, dated 2019).

Columns and labels:
[1] = target: purified recombinant human GAC (GLS1) (Homo sapiens (Human), UniProt O94925); test: GLS1 Enzymatic Activity Assay (dual-coupled enzymatic assay, resorufin/Amplex UltraRed readout); format: biochemical;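 also: glutamate from GAC coupled via glutamate oxidase and peroxidase to resorufin, read as fluorescence (ex 530, em 590 nm) kinetically or at 20 min, four-parameter logistic IC50 fit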
A549 cells = test: Proliferation Assay (A549 viability, Cell Titer Fluor, 72 hours); format: cell-based; conditions: Homo sapiens, A549, 72 h
Procedure, shortened: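 Cell Titer Fluor fluorescence after 72 h compound treatment (0.5% DMSO, 37 °C, 5% CO2) of A549 cells plated 24 h earlier at 1000/well. Four-parameter logistic fitting gave IC50.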

Sequence of purified recombinant human GAC (GLS1) (O94925 other isoform, or with tags, fused parts or gaps): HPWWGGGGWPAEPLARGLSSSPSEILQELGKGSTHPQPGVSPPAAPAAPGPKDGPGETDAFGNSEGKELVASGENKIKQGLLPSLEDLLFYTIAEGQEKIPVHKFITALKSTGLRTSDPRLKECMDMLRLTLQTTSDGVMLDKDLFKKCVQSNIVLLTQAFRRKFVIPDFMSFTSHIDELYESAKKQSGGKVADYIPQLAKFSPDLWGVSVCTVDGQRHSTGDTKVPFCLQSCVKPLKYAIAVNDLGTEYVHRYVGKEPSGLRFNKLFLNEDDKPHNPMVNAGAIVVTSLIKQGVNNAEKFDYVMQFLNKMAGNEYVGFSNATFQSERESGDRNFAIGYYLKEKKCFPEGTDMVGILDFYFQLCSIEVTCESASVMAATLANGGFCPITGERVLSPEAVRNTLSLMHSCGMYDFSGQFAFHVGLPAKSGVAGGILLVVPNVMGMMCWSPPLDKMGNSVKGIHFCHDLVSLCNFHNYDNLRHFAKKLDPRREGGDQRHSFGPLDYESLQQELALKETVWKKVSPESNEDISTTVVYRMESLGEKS

IC50 [1]	EC50 (A549 cells)	Compound
500 to 5000 nM	500 to 5000 nM	CNC(=O)c1cn(CCCCn2cc(C(=O)NCc3cc(C(F)(F)F)ccn3)nn2)nn1 [Example 88, 1-{4-[4-(methylcarbamoyl)-1H-1,2,3-triazol-1-yl]butyl}-N-{[4-(trifluoromethyl)pyridin-2-yl]methyl}-1H-1,2,3-triazole-4-carboxamide]
500 to 5000 nM	500 to 5000 nM	O=C(NCc1cc(C(F)(F)F)ccn1)c1cn(CCCCn2cc(C(=O)NCC3CC3)nn2)nn1 [Example 89]
100 to 500 nM	100 to 500 nM	O=C(NCc1cc(C(F)(F)F)ccn1)c1cn(CCCCn2cc(C(=O)NCC3CCCCC3)nn2)nn1 [Example 90]
500 to 5000 nM	> 5000 nM	O=C(NCc1cncc(C(F)(F)F)c1)c1cn(CCCCn2cc(C(=O)NCC3COC3)nn2)nn1 [Example 91, N-(oxetan-3-ylmethyl)-1-{4-[4-({[5-(trifluoromethyl)pyridin-3-yl]methyl}carbamoyl)-1H-1,2,3-triazol-1-yl]butyl}-1H-1,2,3-triazole-4-carboxamide]
500 to 5000 nM	500 to 5000 nM	O=C(NCc1cncc(C(F)(F)F)c1)c1cn(CCCCn2cc(C(=O)NCC3CCCO3)nn2)nn1 (stereo not shown) [Example 92, N-(oxolan-2-ylmethyl)-1-{4-[4-({[5-(trifluoromethyl)pyridin-3-yl]methyl}carbamoyl)-1H-1,2,3-triazol-1-yl]butyl}-1H-1,2,3-triazole-4-carboxamide]
100 to 500 nM	500 to 5000 nM	O=C(NCc1cncc(C(F)(F)F)c1)c1cn(CCCCn2cc(C(=O)NCC3CCC3)nn2)nn1 [Example 93, N-(cyclobutylmethyl)-1-{4-[4-({[5-(trifluoromethyl)pyridin-3-yl]methyl}carbamoyl)-1H-1,2,3-triazol-1-yl]butyl}-1H-1,2,3-triazole-4-carboxamide]
100 to 500 nM	100 to 500 nM	O=C(NCc1cccc(OC(F)(F)F)c1)c1cn(CCCCn2cc(C(=O)NCC3CCOCC3)nn2)nn1 [Example 94, N-(oxan-4-ylmethyl)-1-{4-[4-({[3-(trifluoromethoxy)phenyl]methyl}carbamoyl)-1H-1,2,3-triazol-1-yl]butyl}-1H-1,2,3-triazole-4-carboxamide]
100 to 500 nM	100 to 500 nM	CNC(=O)c1cn(CCCCn2cc(C(=O)NCc3cccc(OC(F)(F)F)c3)nn2)nn1 [Example 95, N-methyl-1-{4-[4-({[3-(trifluoromethoxy)phenyl]methyl}carbamoyl)-1H-1,2,3-triazol-1-yl]butyl}-1H-1,2,3-triazole-4-carboxamide]
100 to 500 nM	100 to 500 nM	O=C(NCc1ccccc1)c1cn(CCCCn2cc(C(=O)NCc3cc(C(F)(F)F)ccn3)nn2)nn1 [Example 96, 1-{4-[4-(benzylcarbamoyl)-1H-1,2,3-triazol-1-yl]butyl}-N-{[4-(trifluoromethyl)pyridin-2-yl]methyl}-1H-1,2,3-triazole-4-carboxamide]
< 100 nM	< 100 nM	O=C(NCc1cccc(C(F)(F)F)c1)c1cn(CCCCn2cc(C(=O)NCc3cc(C(F)(F)F)ccn3)nn2)nn1 [Example 97, 1-{4-[4-({[3-(trifluoromethyl)phenyl]methyl}carbamoyl)-1H-1,2,3-triazol-1-yl]butyl}-N-{[4-(trifluoromethyl)pyridin-2-yl]methyl}-1H-1,2,3-triazole-4-carboxamide]
500 to 5000 nM	500 to 5000 nM	C[C@@H](NC(=O)c1cn(CCCCn2cc(C(=O)NCc3cc(C(F)(F)F)ccn3)nn2)nn1)c1ccccc1 [Example 98, 1-[4-(4-{[(1R)-1-phenylethyl]carbamoyl}-1H-1,2,3-triazol-1-yl)butyl]-N-{[4-(trifluoromethyl)pyridin-2-yl]methyl}-1H-1,2,3-triazole-4-carboxamide]
500 to 5000 nM	500 to 5000 nM	C[C@H](NC(=O)c1cn(CCCCn2cc(C(=O)NCc3cc(C(F)(F)F)ccn3)nn2)nn1)c1ccccc1 [Example 99, 1-[4-(4-{[(1S)-1-phenylethyl]carbamoyl}-1H-1,2,3-triazol-1-yl)butyl]-N-{[4-(trifluoromethyl)pyridin-2-yl]methyl}-1H-1,2,3-triazole-4-carboxamide]
500 to 5000 nM	> 5000 nM	O=C(NCc1cc(C(F)(F)F)ccn1)c1cn(CCCCn2cc(C(=O)N[C@@H](CO)c3ccccc3)nn2)nn1 [Example 100, 1-[4-(4-{[(1R)-2-hydroxy-1-phenylethyl]carbamoyl}-1H-1,2,3-triazol-1-yl)butyl]-N-{[4-(trifluoromethyl)pyridin-2-yl]methyl}-1H-1,2,3-triazole-4-carboxamide]
500 to 5000 nM	500 to 5000 nM	O=C(NCc1cc(C(F)(F)F)ccn1)c1cn(CCCCn2cc(C(=O)N[C@H](CO)c3ccccc3)nn2)nn1 [Example 101, 1-[4-(4-{[(1S)-2-hydroxy-1-phenylethyl]carbamoyl}-1H-1,2,3-triazol-1-yl)butyl]-N-{[4-(trifluoromethyl)pyridin-2-yl]methyl}-1H-1,2,3-triazole-4-carboxamide]
500 to 5000 nM	500 to 5000 nM	O=C(NCc1cc(C(F)(F)F)ccn1)c1cn(CCCCn2cc(C(=O)NC[C@H]3CC4CCC3O4)nn2)nn1 (stereo partly drawn) [Example 102, 1-[4-(4-{[(2R)-7-oxabicyclo[2.2.1]heptan-2-ylmethyl]carbamoyl}-1H-1,2,3-triazol-1-yl)butyl]-N-{[4-(trifluoromethyl)pyridin-2-yl]methyl}-1H-1,2,3-triazole-4-carboxamide]
100 to 500 nM	500 to 5000 nM	O=C(NCc1cc(C(F)(F)F)ccn1)c1cn(CCCCn2cc(C(=O)NC[C@@H]3CC4CCC3O4)nn2)nn1 (stereo partly drawn) [Example 103, 1-[4-(4-{[(2S)-7-oxabicyclo[2.2.1]heptan-2-ylmethyl]carbamoyl}-1H-1,2,3-triazol-1-yl)butyl]-N-{[4-(trifluoromethyl)pyridin-2-yl]methyl}-1H-1,2,3-triazole-4-carboxamide]
500 to 5000 nM	500 to 5000 nM	O=C(NCc1cc(C(F)(F)F)ccn1)c1cn(CCCCn2cc(C(=O)NC3CCCC3)nn2)nn1 [Example 104, 1-{4-[4-(cyclopentylcarbamoyl)-1H-1,2,3-triazol-1-yl]butyl}-N-{[4-(trifluoromethyl)pyridin-2-yl]methyl}-1H-1,2,3-triazole-4-carboxamide]
< 100 nM	< 100 nM	O=C(NCc1cccc(C2CC2)c1)c1cn(CCCCn2cc(C(=O)NCc3cc(C(F)(F)F)ccn3)nn2)nn1 [Example 105, 1-[4-(4-{[(3-cyclopropylphenyl)methyl]carbamoyl}-1H-1,2,3-triazol-1-yl)butyl]-N-{[4-(trifluoromethyl)pyridin-2-yl]methyl}-1H-1,2,3-triazole-4-carboxamide]
< 100 nM	< 100 nM	O=C(NCc1cccc(OC(F)(F)F)c1)c1cn(CCCCn2cc(C(=O)NCc3cc(C4CC4)ccn3)nn2)nn1 [Example 106, N-[(4-cyclopropylpyridin-2-yl)methyl]-1-{4-[4-({[3-(trifluoromethoxy)phenyl]methyl}carbamoyl)-1H-1,2,3-triazol-1-yl]butyl}-1H-1,2,3-triazole-4-carboxamide]
< 100 nM	< 100 nM	O=C(NCc1cc(C(F)(F)F)ccn1)c1cn(CCCCn2cc(C(=O)NCc3cc(F)ccc3Cl)nn2)nn1 [Example 107, 1-[4-(4-{[(2-chloro-5-fluorophenyl)methyl]carbamoyl}-1H-1,2,3-triazol-1-yl)butyl]-N-{[4-(trifluoromethyl)pyridin-2-yl]methyl}-1H-1,2,3-triazole-4-carboxamide]
